Reference: patent publication US20130045500A1, “CELL EVALUATION METHOD” (NATIONAL CANCER CENTER, priority 2011, published 2013)

Tested on: human breast-cancer-derived cell line T47D
Assay: Survival rate by ATP assay (CellTiter-Glo) and number of spheroids on NanoCulture plate
Assay type: cell-based
Settings: trastuzumab 10 μg/mL, paclitaxel 6.0 μg/mL, 7 days after medicine was added, expected effects confirmed in b72 (FIG. 8, FIG. 9)
Experimental: A human breast-cancer-derived cell line T47D was suspended in a culture medium (NCM-M made by SCIVAX Co., Ltd.), and seeded on a NanoCulture (registered mark) plate (made by SCIVAX Co., Ltd., 96-well plate, material of concavo-convex structure surface: cyclic-olefin polymer (COP), planar shape of concavo-convex structure: regular hexagon, width between unit structures (line width): 700 nm, minimum internal diameter of unit structure: 3 μm, and depth: 1 μm) at 1×10^4 cells/well, and incubated at 37° C. and 5% CO2.
The survival rate of the cell on the tenth day (the seventh day after medicines were added) was evaluated based on the assay of the ATP in the cell using CellTiter-Glo Luminescent Cell Viability Assay (Promega KK.) and calculated as a relative value, and the results are shown in FIG. 8.

Structure (SMILES): CC(=O)O[C@H]1C(=O)[C@@]2(C)[C@H]([C@H](OC(=O)c3ccccc3)[C@]3(O)C[C@H](OC(=O)[C@H](O)[C@@H](NC(=O)c4ccccc4)c4ccccc4)C(C)=C1C3(C)C)[C@]1(OC(C)=O)CO[C@@H]1C[C@@H]2O [paclitaxel]
- antitumor effect (ATP amount in the cell and number of spheroids): shows an antitumor effect
